Assay results taken from patent US20250270159A1, “1-(CYCLOBUTANEMETHYLIDENE)-2, 4, 5-TRIMETHOXYBENZENE COMPOUND AND PREPARATION METHOD AND USE THEREOF” (CHENGDU XINRUI TAIKANG TECHNOLOGY CO., LTD., priority 2023, published 2025).

Legend:
[1] = system: blood-brain barrier permeability, traumatic brain injury (TBI) rats; assay: Blood-brain barrier permeability test (Evans blue) in TBI rats; assay type: in vivo, SD rats; conditions: 30 mg/kg ip 2 h after TBI; 24 h after administration; FIG. 2
Protocol: (§1) The experimental grouping and drug administration plan were as follows. • Sham operation group (Group P): saline was given with the same volume as in the CTMB group; • Model group (T group): a blank emulsion was given with the same volume as in the CTMB group; • Medium dose group (Group M): a dose of 30 mg/kg of CTMB emulsion injection was given.
After 2 h of traumatic brain injury (TBI) modeling, the rats in each group were administered with intraperitoneal injection. After 24 h of the administration, 4% Evans blue solution (2.5 mL/kg) was injected into the right tail vein of the rats, and after 1 h, the rats were deeply anesthetized. The rats were perfused with 100 mL of saline through the heart, the brains were rapidly severed and removed and were immediately divided into the left hemisphere, the right hemisphere, the cerebellum, and the brain stem. The brain tissues were weighed to wet weight, soaked in 10 times volume of pure formamide, incubated at 60° C. for 48 h, and centrifuged at 25° C. and 10000 rpm/min for 30 min. The supernatant was aspirated to detect the Evans blue dye by UV spectrophotometry at 622 nm and a standard curve was plotted for quantification, and the final results were shown as Evans blue content per gram of brain tissue (μg/g).

[2] = system: Parkinson's disease (PD) mice, 6-OHDA method; assay: 6-OHDA Parkinson's disease mice, hanging experiment; assay type: in vivo, C57 mice; conditions: Group D, CTMB 20 mg/kg ip, cut-off 60 s
Protocol: The mice were randomly divided into a sham operation group (group S, given a blank emulsion with a volume equal to that of the administered group), a model group (group M, given a blank emulsion with a volume equal to that of the administered group), a CTMB group (20 mg/kg, group D), and a levodopa group (levodopa: benserazide hydrochloride=4:1, 12 mg/kg, group L), each group included 10-12 mice, and all of them were administered intraperitoneally.
Preoperatively, mice were fasted for 12 h, and mice were anesthetized with 4% isoflurane induction and maintained with 1.5% isoflurane. The mice were subsequently immobilized on a brain stereotaxic apparatus. The bregma and lambda points were exposed by gently wiping the cranial surface with a cotton swab after cutting the scalp. The stereotaxic apparatus was adjusted to align the heights of the bregma and lambda points, thereby leveling the skull. The bregma point was designated as the origin, the coordinates where the injection site was located were located, and the drill was used to drill a small hole in the skull above the injection site.
6-OHDA (12.5 μg/μL) was injected into the striatum region (AP+0.5 mm; ML+2.00 mm; DV-3.00 mm and-2.00 mm) of the mice, and 1 μL 6-OHDA was injected into each of the two points at a rate of 0.5 μL/min. The needle was left in place for 3 min after the injection was completed, and then the injection needle was lifted, and the scalp of the mice was sutured and disinfected. The sham operation group was injected with an equal volume of saline containing 0.02% ascorbic acid, and other operations were performed as above. After the procedure, the mice were placed in the cage at an appropriate temperature. After awakening from anesthesia, the mice were kept normally.
The hanging experiment: normal mice have climbing activity, which requires proper grip strength and motor coordination, so the hanging experiment may be used to examine motor dysfunction in mice. A metal rod with a diameter of 1.5 mm was placed horizontally on top of the box, and a distance from the metal rod to the bottom of the box was 30 cm. […] Measurement was performed twice, with an interval of 1 min or more between each test, and the results were averaged over the two times.
The motor function of the mice was comprehensively assessed using the rod-climbing experiment and the hanging experiment at 1, 2, 3, and 4 weeks after drug administration.

[3] = system: IL-6; assay: IL-6 in cerebral cortex of TBI rats; assay type: in vivo, SD rats; conditions: 30 mg/kg ip 2 h after TBI; 24 h after administration; FIG. 3
Protocol: as §1
(§2) The experimental grouping and drug administration plan were the same as the test 3. After 2 h of the TBI modeling, different groups of rats were administered intraperitoneally. After 24 h of the administration, the rats were deeply anesthetized, the head was severed and the brain was removed, about 60-120 mg of hemisphere cortex was taken out from the hemisphere on the blood side, 10 times the volume of ice-cold centrifugal buffer used for biochemical assays was added, homogenization was carried out in an ice bath for 10 min, and centrifugation was carried out at 4° C. and 14000 rpm/min for 30 min. The supernatant was extracted, and inflammatory factors IL-1, IL-6, and TNF-α were tested according to the instructions of IL-1, IL-6, and TNF-α assay kits, respectively.

[4] = system: rat model of lithium-pilocarpine-induced epilepsy; assay: Rat model of lithium-pilocarpine-induced epilepsy (SE), highest seizure grade score; assay type: in vivo, Sprague Dawley (SD) rats; conditions: 50 mg/kg intraperitoneal, 1 h after SE onset; acute phase; Racine 0-6
Protocol: (1) Experimental Animals: SPF Adult Male Sprague Dawley (SD) Rats, with a Weight of 200-250 g.
Methylscopolamine bromide, lithium chloride, and pilocarpine were weighed, and experimental drugs were dissolved to working concentrations (100 mg/mL of lithium chloride solution, 1 mg/mLof methylscopolamine bromide solution, and 20 mg/mL of pilocarpine solution) with 0.9% saline. Rats were injected intraperitoneally with lithium chloride (a dose of 127 mg/kg), and 18-20 h later, scopolamine methylbromide (a dose of 1 mg/kg) was injected intraperitoneally. […] Thereafter, an additional dose of 10 mg/kg pilocarpine was injected intraperitoneally every 30 min until the onset of a grade IV or higher status epilepticus (SE)-like seizure without significant intermittent intervals, with a maximum dose of 60 mg/kg.
Model inclusion criterion: experimental animals presenting continuous seizures of grade IV or higher for 1 h was judged as successful modeling.
The rats with successful modeling were randomly divided into three groups, namely a model group, a CTMB group, and a sodium valproate (VPA) group. […]
Referring to the grading scale of Racine scores, the seizure symptoms of each group of rats after the drug intervention were observed, and the seizure grades of each group of rats in the acute phase were recorded. […]

[5] = system: TNF-α; assay: TNF-α in cerebral cortex of TBI rats; assay type: in vivo, SD rats; conditions: 30 mg/kg ip 2 h after TBI; 24 h after administration; FIG. 3
Protocol: as §1, §2

## COc1cc(OC)c(OC)cc1C=C1CCC1 [CTMB, 1-(cyclobutylidenemethyl)-2,4,5-trimethoxybenzene]
[1]
  Evans blue exudation (content per gram of brain tissue): significantly reduces Evans blue exudation
[2]; baseline 2 weeks after 6-OHDA
  Hanging time, Before administration: 45.5 ± 14.6 s
[2]
  Hanging time, 1 week of administration: 51.8 ± 14.1 s
  Hanging time, 2 weeks of administration: 56.8 ± 5.2 s
  Hanging time, 3 weeks of administration: 58.8 ± 2.8 s
  Hanging time, 4 weeks of administration: 57.6 ± 4.6 s
[3]
  content of IL-6 in cerebral cortex tissue: significantly reduced
[4]
  Seizure grade score (highest, SE model rats): 4.38 ± 0.52
[5]
  content of TNF-α in cerebral cortex tissue: significantly reduced
